pIC50: −log10 of the molar value. Numbered stars: 1 amine (or outer) side, 2 acyl side, 3 side chain; on linkers, the order of the positions; unused ones are H or OH. Bridge positions count the residues as written; N and C are the ends. Square brackets hold non-standard residues; d marks the D form. Peptide text beside a SMILES is read from it. * marks the point of attachment. hPhe(3,5-F2-4-CF3) = N[C@@H](CCc1cc(F)c(C(F)(F)F)c(F)c1)C(=O)O; hPhe(3-Cl-4-CF3) = N[C@@H](CCc1ccc(C(F)(F)F)c(Cl)c1)C(=O)O; NMePhe(4-CF3) = CN[C@@H](Cc1ccc(C(F)(F)F)cc1)C(=O)O; NMeAbu(4,4,4-F3) = CN[C@@H](CC(F)(F)F)C(=O)O; NMePhe(4-Me) = CN[C@@H](Cc1ccc(C)cc1)C(=O)O; NMedβ3hAla = C[C@H](CC(=O)[*:2])N(C)[*:1]; NMeAla(cPent) = CN[C@@H](CC1CCCC1)C(=O)O; NMeGly(cPent) = CN[C@H](C(=O)O)C1CCCC1; Pro(4,4-F2) = O=C(O)[C@@H]1CC(F)(F)CN1; X26 = CC(C)=CC[C@H](N[*:1])C(=O)[*:2]; Met(O2) = CS(=O)(=O)CC[C@H](N)C(=O)O; NMeCha = CN[C@@H](CC1CCCCC1)C(=O)O; Ala(cPr) = N[C@@H](CC1CC1)C(=O)O; Hyp = O=C(O)[C@@H]1C[C@@H](O)CN1; NMeChg = CN[C@H](C(=O)O)C1CCCCC1; X17 = FC1(F)CN(*)CC(F)(F)C1(F)F; NMeD = CN[C@@H](CC(=O)O)C(=O)O; NMeL = CN[C@@H](CC(C)C)C(=O)O; NMeV = CN[C@H](C(=O)O)C(C)C; d(β3hA) = C[C@@H](N)CC(=O)O; Azetidin(1-yl) = C1CN(*)C1; NMeS = CN[C@@H](CO)C(=O)O; hSer = N[C@@H](CCO)C(=O)O; Morpholide = C1CN(*)CCO1; NMeA = CN[C@@H](C)C(=O)O; Piperidide = C1CCN(*)CC1; Ac5c = NC1(C(=O)O)CCCC1; Aze = O=C(O)[C@@H]1CCN1; CH2CMe2OH = CC(C)(O)C*; Aib = CC(C)(N)C(=O)O; Cyclopropyl = C1CC1*; Isopentyl = CC(C)CC*; NEtG = CCNCC(=O)O; Sar = CNCC(=O)O
Legend:
[1] = target: protein-protein interaction between Kras and SOS1 (biotin-tagged human Kras loaded with GDP, His-tagged human SOS1) (Homo sapiens (Human), UniProt P01116, G12D); experiment: Protein-protein interaction inhibition between Kras and SOS1 (KrasG12D-SOS PPI) using AlphaScreen; assay type: biochemical; conditions: AlphaScreen; biotin-tagged human Kras loaded with GDP, His-tagged human SOS1; read-out: KRAS G12D-SOS PPI IC50;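 note: kras produced in E. coli, Ni-coupled donor beads and streptavidin acceptor beads, excitation 680 nm with emission detected at 520–620 nm via singlet oxygen transfer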
[2] = system: Human pancreatic cancer cell line AsPC-1 (G12D mutation Kras); experiment: AsPC-1 cell growth inhibition (AsPC-1 CGI); assay type: cell-based; conditions: read-out: AsPC-1 cell growth inhibition, 50% growth inhibitory concentration (IC50 value); 96 hours, CellTiter-Glo, values classified in ranges

Structure (SMILES)	pIC50 [1]	pIC50 [2]
CC[C@H](C)[C@@H]1NC(=O)[C@H](CC(C)C)NC(=O)C[C@@H](C)NC(=O)[C@H](C2CCCC2)N(C)C(=O)C2(CCCC2)NC(=O)[C@@H]2CCCN2C(=O)[C@H](CCc2ccc(C(F)(F)F)c(Cl)c2)NC(=O)CN(C)C(=O)[C@H](Cc2ccc(C)cc2)N(C)C(=O)[C@@H]2CCN2C(=O)[C@H](C)N(C)C1=O [Compound 648] (cyclo([Ac5c][NMeGly(cPent)][d(β3hA)]LI[NMeA][Aze][NMePhe(4-Me)][Sar][hPhe(3-Cl-4-CF3)]P))	8.49	< 6.30
CCO[C@@H]1C[C@H]2C(=O)NC3(CCCC3)C(=O)N(C)[C@@H](C3CCCCC3)C(=O)N(C)[C@H](C(=O)N3CCOCC3)CC(=O)N(C)[C@@H](CC(C)C)C(=O)N[C@@H]([C@@H](C)CC)C(=O)N(C)CC(=O)N(C)CC(=O)N(C)[C@@H](CC3CCCCC3)C(=O)N(C)CC(=O)N[C@@H](CCc3ccc(C(F)(F)F)c(Cl)c3)C(=O)N2C1 [Compound 1990] ([NMeL]I[Sar][Sar][NMeCha][Sar][hPhe(3-Cl-4-CF3)][Hyp](Et)[Ac5c][NMeChg][NMeD]-Morpholide; lactam N-11)	9.37	≥ 7.70
CC[C@H](C)[C@@H]1NC(=O)[C@H](CC(C)C)N(C)C(=O)C[C@@H](C)N(C)C(=O)[C@H](C(C)C)N(C)C(=O)C2(CCCC2)NC(=O)[C@@H]2CCCN2C(=O)[C@H](CCc2ccc(C(F)(F)F)c(Cl)c2)NC(=O)CN(C)C(=O)[C@H](Cc2ccc(C)cc2)N(C)C(=O)[C@@H]2CCN2C(=O)[C@H](C)N(C)C1=O [Compound 1809] (cyclo([Ac5c][NMeV][NMedβ3hAla][NMeL]I[NMeA][Aze][NMePhe(4-Me)][Sar][hPhe(3-Cl-4-CF3)]P))	8.85	≥ 7.70
CC(C)C[C@H]1C(=O)N[C@@H](COC2CC2)C(=O)N(C)[C@@H](C)C(=O)N2CC[C@H]2C(=O)N(C)[C@@H](CC2CCCCC2)C(=O)N(C)CC(=O)N[C@@H](CCc2ccc(C(F)(F)F)c(Cl)c2)C(=O)N2CCC[C@H]2C(=O)NC2(CCCC2)C(=O)N(C)[C@@H](C(C)C)C(=O)N(C)[C@H](C(=O)N2CCCCC2)CC(=O)N1C [Compound 1811] ([NMeL]S(Cyclopropyl)[NMeA][Aze][NMeCha][Sar][hPhe(3-Cl-4-CF3)]P[Ac5c][NMeV][NMeD]-Piperidide; lactam N-11)	7.25	< 6.30
CC[C@H](C)[C@@H]1NC(=O)[C@H](CC(C)C)N(C)C(=O)C[C@@H](C)NC(=O)[C@H](C2CCCC2)N(C)C(=O)[C@@H](C(C)C)NC(=O)[C@@H]2CCCN2C(=O)[C@H](CCc2ccc(C(F)(F)F)c(Cl)c2)NC(=O)CN(C)C(=O)[C@H](Cc2ccc(C)cc2)N(C)C(=O)[C@@H]2CCN2C(=O)[C@H](C)N(C)C1=O [Compound 598] (cyclo([Aze][NMePhe(4-Me)][Sar][hPhe(3-Cl-4-CF3)]P[dV][NMeGly(cPent)][d(β3hA)][NMeL]I[NMeA]))	6.52	< 6.30
CC[C@H](C)[C@@H]1NC(=O)[C@H](CC(C)C)N(C)C(=O)C[C@@H](C(=O)N2CC(F)(F)C(F)(F)C(F)(F)C2)N(C)C(=O)[C@H](C2CCCCC2)N(C)C(=O)C2(CCCC2)NC(=O)[C@@H]2CCCN2C(=O)[C@H](CCc2ccc(C(F)(F)F)c(Cl)c2)NC(=O)CN(C)C(=O)[C@H](CC2CCCCC2)N(C)C(=O)CN(C)C(=O)CN(C)C1=O [Compound 1229] ([NMeL]I[Sar][Sar][NMeCha][Sar][hPhe(3-Cl-4-CF3)]P[Ac5c][NMeChg][NMeD]-X17; lactam N-11)	7.34	< 6.30
CC(C)C[C@H]1C(=O)N[C@@H](CC2CC2)C(=O)N(C)[C@@H](C)C(=O)N2CC[C@H]2C(=O)N(C)[C@@H](CC2CCCCC2)C(=O)N(C)CC(=O)N[C@@H](CCc2ccc(C(F)(F)F)c(Cl)c2)C(=O)N2CCC[C@H]2C(=O)NC2(CCCC2)C(=O)N(C)[C@@H](C(C)C)C(=O)N(C)[C@H](C(=O)N2CCCCC2)CC(=O)N1C [Compound 358] ([NMeL][Ala(cPr)][NMeA][Aze][NMeCha][Sar][hPhe(3-Cl-4-CF3)]P[Ac5c][NMeV][NMeD]-Piperidide; lactam N-11)	7.48	< 6.30
CC[C@H](C)[C@@H]1NC(=O)[C@H](CC(C)C)N(C)C(=O)C[C@@H](C)NC(=O)[C@H](C2CCCCC2)N(C)C(=O)C2(CCCC2)NC(=O)[C@@H]2CCCN2C(=O)[C@H](CCc2ccc(C(F)(F)F)c(Cl)c2)NC(=O)CN(C)C(=O)[C@H](Cc2ccc(C)cc2)N(C)C(=O)[C@@H]2CCN2C(=O)[C@H](C)N(C)C1=O [Compound 1747] (cyclo([Ac5c][NMeChg][d(β3hA)][NMeL]I[NMeA][Aze][NMePhe(4-Me)][Sar][hPhe(3-Cl-4-CF3)]P))	7.80	< 6.30
CCO[C@@H]1C[C@H]2C(=O)NC3(CCCC3)C(=O)N(C)[C@@H](C3CCCCC3)C(=O)N(C)[C@H](C(=O)N3CCOCC3)CC(=O)N(C)[C@@H](CC(F)(F)F)C(=O)N[C@@H]([C@@H](C)CC)C(=O)N(C)CC(=O)N(C)CC(=O)N(C)[C@@H](Cc3ccc(C(F)(F)F)cc3)C(=O)N(C)CC(=O)N[C@@H](CCc3cc(F)c(C(F)(F)F)c(F)c3)C(=O)N2C1 [Compound 1297] ([NMeAbu(4,4,4-F3)]I[Sar][Sar][NMePhe(4-CF3)][Sar][hPhe(3,5-F2-4-CF3)][Hyp](Et)[Ac5c][NMeChg][NMeD]-Morpholide; lactam N-11)	9.29	≥ 7.70
COCC[C@@H]1NC(=O)[C@H](CC(C)C)N(C)C(=O)C[C@@H](C(=O)N2CCCCC2)N(C)C(=O)[C@H](C(C)C)N(C)C(=O)C2(CCCC2)NC(=O)[C@@H]2CCCN2C(=O)[C@H](CCc2ccc(C(F)(F)F)c(Cl)c2)NC(=O)CN(C)C(=O)[C@H](CC2CCCCC2)N(C)C(=O)[C@@H]2CCN2C(=O)[C@H](C)N(C)C1=O [Compound 17] ([NMeL][hSer](Me)[NMeA][Aze][NMeCha][Sar][hPhe(3-Cl-4-CF3)]P[Ac5c][NMeV][NMeD]-Piperidide; lactam N-11)	7.52	< 6.30
CC[C@H](C)[C@@H]1NC(=O)[C@H](C)N(C)C(=O)C[C@@H](C(=O)N2CCCCC2)N(C)C(=O)[C@H](C(C)C)N(C)C(=O)C2(CCCC2)NC(=O)[C@H](Cc2ccc(C)cc2)N(C)C(=O)[C@H](CCc2ccc(C(F)(F)F)c(Cl)c2)NC(=O)CN(C)C(=O)[C@H](CC2CCCCC2)N(C)C(=O)CN(C)C(=O)CN(C)C1=O [Compound 346] ([NMeA]I[Sar][Sar][NMeCha][Sar][hPhe(3-Cl-4-CF3)][NMePhe(4-Me)][Ac5c][NMeV][NMeD]-Piperidide; lactam N-11)	7.96	< 6.30
CC[C@H](C)[C@@H]1NC(=O)[C@H](CC2CCCC2)N(C)C(=O)C[C@@H](C(=O)N2CCOCC2)N(C)C(=O)[C@H](C2CCCC2)N(C)C(=O)C2(CCCC2)NC(=O)[C@@H]2CCCN2C(=O)[C@H](CCc2ccc(C(F)(F)F)c(Cl)c2)NC(=O)CN(C)C(=O)[C@H](C2CCCC2)N(C)C(=O)[C@@H]2CCN2C(=O)[C@H](C)N(C)C1=O [Compound 1173] ([NMeAla(cPent)]I[NMeA][Aze][NMeGly(cPent)][Sar][hPhe(3-Cl-4-CF3)]P[Ac5c][NMeGly(cPent)][NMeD]-Morpholide; lactam N-11)	9.13	≥ 7.70
CC[C@H](C)[C@@H]1NC(=O)[C@H](CC(C)C)N(C)C(=O)C[C@@H](C(=O)N2CCCCC2)N(C)C(=O)[C@H](C(C)C)N(C)C(=O)C2(CCCC2)NC(=O)[C@@H]2CCCN2C(=O)[C@H](CCc2ccc(C(F)(F)F)c(Cl)c2)NC(=O)CN(C)C(=O)[C@H](COC)N(C)C(=O)[C@@H]2CCN2C(=O)[C@H](C)N(C)C1=O [Compound 487] ([NMeL]I[NMeA][Aze][NMeS](Me)[Sar][hPhe(3-Cl-4-CF3)]P[Ac5c][NMeV][NMeD]-Piperidide; lactam N-11)	8.23	< 6.30
CC[C@H](C)[C@@H]1NC(=O)[C@H](CC(C)C)N(C)C(=O)C[C@@H](C(=O)N2CCC2)N(C)C(=O)[C@H](C2CCCC2)N(C)C(=O)C2(CCCC2)NC(=O)[C@@H]2CC(F)(F)CN2C(=O)[C@H](CCc2cc(F)c(C(F)(F)F)c(F)c2)NC(=O)CN(C)C(=O)[C@H](CC2CCCCC2)N(C)C(=O)[C@@H]2CCN2C(=O)[C@H](C)N(C)C1=O [Compound 1248] ([NMeL]I[NMeA][Aze][NMeCha][Sar][hPhe(3,5-F2-4-CF3)][Pro(4,4-F2)][Ac5c][NMeGly(cPent)][NMeD]-{Azetidin(1-yl)}; lactam N-11)	9.17	≥ 7.70
CC[C@H](C)[C@@H]1NC(=O)[C@H](CC(C)C)N(C)C(=O)C[C@@H](C)NC(=O)[C@H](CC(C)C)N(C)C(=O)C(C)(C)NC(=O)[C@H](COCC(C)(C)O)N(C)C(=O)[C@H](CCc2ccc(C(F)(F)F)c(Cl)c2)NC(=O)CN(C)C(=O)[C@H](COCCC(C)C)N(C)C(=O)CN(C)C(=O)CN(CC)C1=O [Compound 1519] (cyclo([Aib][NMeL][d(β3hA)][NMeL]I[NEtG][Sar][NMeS](Isopentyl)[Sar][hPhe(3-Cl-4-CF3)][NMeS](CH2CMe2OH)))	6.92	< 6.30
CC(C)=CC[C@@H]1NC(=O)[C@H](CC(C)C)N(C)C(=O)C[C@@H](C(=O)N2CCCCC2)N(C)C(=O)[C@H](C(C)C)N(C)C(=O)C2(CCCC2)NC(=O)[C@@H]2CCCN2C(=O)[C@H](CCc2ccc(C(F)(F)F)c(Cl)c2)NC(=O)CN(C)C(=O)[C@H](CC2CCCCC2)N(C)C(=O)[C@@H]2CCN2C(=O)[C@H](C)N(C)C1=O [Compound 729] ([NMeL][X26][NMeA][Aze][NMeCha][Sar][hPhe(3-Cl-4-CF3)]P[Ac5c][NMeV][NMeD]-Piperidide; lactam N-11)	7.37	< 6.30
CC(C)C[C@H]1C(=O)N[C@@H](CCS(C)(=O)=O)C(=O)N(C)[C@@H](C)C(=O)N2CC[C@H]2C(=O)N(C)[C@@H](CC2CCCCC2)C(=O)N(C)CC(=O)N[C@@H](CCc2ccc(C(F)(F)F)c(Cl)c2)C(=O)N2CCC[C@H]2C(=O)NC2(CCCC2)C(=O)N(C)[C@@H](C(C)C)C(=O)N(C)[C@H](C(=O)N2CCCCC2)CC(=O)N1C [Compound 174] ([NMeL][Met(O2)][NMeA][Aze][NMeCha][Sar][hPhe(3-Cl-4-CF3)]P[Ac5c][NMeV][NMeD]-Piperidide; lactam N-11)	7.24	< 6.30
